Test results reported in patent US12655104B2, “Anticancer compounds selective for ER-positive cancers” (THE BOARD OF TRUSTEES OF THE UNIVERSITY OF ILLINOIS, priority 2020, dated 2026).
Read-outs that look alike come from different tables or passages of the source.

Experiments:
T47D-ERαD538G (TDG) = assay: Alamar blue fluorescence viability (IC50), TDG; assay type: cell-based; conditions: 24 h, read-out: IC50 24 hr (μM)
Method: Cancer Cell Lines: Culturing Conditions and Validation. All cell lines were cultured at 37° C. with 5% CO2. All ERα-positive cell lines were grown in media lacking phenol red. MCF-7 were grown in EMEM with 10% FBS and 1% penicillin-streptomycin (P/S). T47D were cultured in MEM with 10% FBS and 1% P/S. TYS and TDG cells were grown in MEM supplemented with 10% CD-FBS and 1% P/S. HCT-116 and MDA-MB-231 cells were cultured in RPMI-1640 supplemented with 10% FBS and 1% P/S. MDA-MB-436 cells were cultured in DMEM supplemented with 10% FBS and 1% P/S. HT-29 were cultured in McCoy's media supplemented with 10% FBS and 1% P/S. All cell lines were used directly from ATCC stocks and/or have been further authenticated using PowerPlex16HS Assay (Promega) as described previously.^54 In short, >1 million cells were harvested and lysed using the cell lysis buffer (50 mM Tris, 50 mM EDTA, 25 mM sucrose, 100 mM NaCl, 1% SDS, pH 8). […]
Alamar Blue Fluorescence for Anticancer Activity (IC50). […] After 2-6 hours incubation, each well's fluorescence (λexcit.=555 nm, λemission.=585 nm) was measured using a SpectraMax M3 plate reader (Molecular Devices). Percent dead was determined by comparison to a 100% dead control: 100 μM raptinal treated cells. Dose dependent curves and IC50 were calculated using Origin Pro V10.

MDA-MB-231 = assay: Alamar blue fluorescence viability (IC50), MDA-MB-231; assay type: cell-based; conditions: for IC50: Homo sapiens
Method: (§1) Cancer Cell Lines: Culturing Conditions and Validation. All cell lines were cultured at 37° C. with 5% CO2. All ERα-positive cell lines were grown in media lacking phenol red. MCF-7 were grown in EMEM with 10% FBS and 1% penicillin-streptomycin (P/S). T47D were cultured in MEM with 10% FBS and 1% P/S. TYS and TDG cells were grown in MEM supplemented with 10% CD-FBS and 1% P/S. HCT-116 and MDA-MB-231 cells were cultured in RPMI-1640 supplemented with 10% FBS and 1% P/S. MDA-MB-436 cells were cultured in DMEM supplemented with 10% FBS and 1% P/S. HT-29 were cultured in McCoy's media supplemented with 10% FBS and 1% P/S. All cell lines were used directly from ATCC stocks and/or have been further authenticated using PowerPlex16HS Assay (Promega) as described previously.^54 In short, >1 million cells were harvested and lysed using the cell lysis buffer (50 mM Tris, 50 mM EDTA, 25 mM sucrose, 100 mM NaCl, 1% SDS, pH 8). DNA extraction and short tandem repeats (STRs) profiling for each cell line were carried out at the University of Arizona Genetics Core (UAGC). Autosomal STR profiles were compared to reference databases such as ATCC, DSMZ, and JCRB.
(§2) Alamar Blue Fluorescence for Anticancer Activity (IC50). 2,000-15,000 cells per well were seeded a 96-well plate. Cells were allowed to adhere before DMSO stock solutions of test compounds were added to each well with a final concentration of DMSO in each well=1%; final volume: 100 μL. At the end of the desired incubation time (e.g., 24 or 72 hours), media in each well was aspirated and new fresh media (no compound, 100 μL) was added. Alamar blue solution (4 mg resazurin per 40 mL PBS) was then added (10 μL). After 2-6 hours incubation, each well's fluorescence (λexcit.=555 nm, λemission.=585 nm) was measured using a SpectraMax M3 plate reader (Molecular Devices). Percent dead was determined by comparison to a 100% dead control: 100 μM raptinal treated cells. Dose dependent curves and IC50 were calculated using Origin Pro V10.

HCT-116 = assay: Alamar blue fluorescence viability (IC50), HCT-116; assay type: cell-based; conditions: for IC50: Homo sapiens
Method: as §1, §2

HT-29 = assay: Alamar blue fluorescence viability (IC50), HT-29; assay type: cell-based; conditions: for IC50: Homo sapiens
Method: as §1, §2

[1] = Simulated gastric fluid (SGF) stability assay; assay type: in vitro ADME; conditions: 100 μM in SGF with pepsin, 120 min
Method: Simulated Gastric Fluid (SGF) Stability Assay. SGF was prepared fresh by adding 3.2 g pepsin (Sigma Aldrich P7000) to 1000 mL of SGF (Fischer Scientific 7108-16) and the pH adjusted to 1.2 using a pH meter. This SGFwith pepsin solution was then warmed to 37° C. 990 μL of warmed SGFwith pepsin was then aliquoted into multiple Eppendorf tubes, followed by 10 μL of 10 mM DMSO stock solutions of test compounds. Erythromycin (MedChemExpress HY-B0220) is a positive control for this stability assay. Samples were incubated at 37° C. for the entire experiment with vortexing every 15 minutes. At each desired time point (0, 15, 30, 60, 120 minutes), a 100 μL aliquot is removed and quenched into 50 μL of acetonitrile. Samples are stored at 4° C. until all time points are complete. Samples were then vortexed and then clarified at 3,000 RPM for 10 minutes in a 4° C. centrifuge. Supernatants were collected and compound concentrations determined by LC-MS/MS (UIUC Metabolomics Center, Urbana, IL.). Determined compound concentrations were used to calculate percent remaining compared to t=0 samples.

[2] = Pharmacokinetic (PK) studies in mice; assay type: in vivo
Method: Pharmacokinetic (PK) Studies. […] Mice were then sacrificed in cohorts of 3 at time points (#, #, #). Blood was collected, centrifuged, and plasma separated for quantification of test compound utilizing LC-MS/MS (UIUC Metabolomics Center, Urbana, IL.). Determined compound concentration was then analyzed using non-linear regression programing (WinNonlin) and pharmacokinetic parameters estimated.

[3] = Maximum tolerated dose (MTD) in mice; assay type: in vivo; conditions: female, CD-1, in vivo, Mouse, single dose, read-out: MTD
Description: (§3) Maximum Tolerated Dose (MTD) Experiments in Mice and Rats. […] Rodents were monitored for signs of distress, lethargy, neurotoxicity, and so forth for multiple days after compound administration. […] The MTD was defined as the maximum dose in which any acute side effects observed were tolerated and no lethality observed.

CD-1 mice = assay: Maximum tolerated dose (MTD) in mice; assay type: in vivo
Description: as §3

[4] = Maximum tolerated dose (MTD) in rats; assay type: in vivo; conditions: Sprague Dawley, in vivo, iv; Rat, I.V., single dose; read-out: MTD
Description: as §3

[5] = tested on: CD Sprague Dawley IGS rats; assay: Maximum tolerated dose (MTD) in rats; assay type: in vivo; conditions: Rat, I.V.
Description: as §3

MCF-7 tumors = assay: MCF-7 orthotopic tumor model; assay type: in vivo, mice
Method: MCF-7 Orthotopic Tumor Model. Nu/J ovariectomized mice (Jackson's lab) were supplemented with a 60-day E2 pellet (0.36 mg, Innovative Research of America) 2-3 days prior to tumor cell inoculation. MCF-7 cells (5×10^6, in 1:1 HBSS:matrigel) were inoculated into the mammary fat pad and allowed to establish and tumors grown to ˜300-400 mm^3 (˜21-28 days to establish). […] Tumor size was measured by caliper, and mouse weights were recorded.

[6] = female, CD-1, mouse, in vivo, iv, I.V. 20 mg/kg

O=C1Nc2c(C(F)(F)F)cccc2[C@@]1(c1ccc(O)cc1)N1CCC(F)(F)CC1 (single isomer, unassigned) [ErSO-DFP]
IC50 (T47D-ERαD538G (TDG)): 0.009 ± 0.001 µM
Fold Change (MDA-MB-231; Average Fold Change between 24/72 hr IC50 values for MCF-7 and MDA-MB-231): 1882
IC50 (MDA-MB-231; MDA-MB-231, 24 h, read-out: IC50 24 hr (μM)): 55 ± 5 µM
IC50 (MDA-MB-231; MDA-MB-231, 72 h, read-out: IC50 72 hr (μM)): 32 ± 4 µM
Fold Change (HCT-116; Average Fold Change between 24/72 hr IC50 values for MCF-7 and HCT-116): 3235
effects bottom out at (% cell death at lower concentrations) (HCT-116; HCT-116 cells, bottom of IC50 curve): ~0%
IC50 (HCT-116; HCT-116, 24 h, read-out: IC50 24 hr (μM)): 55 µM
IC50 (HCT-116; HCT-116, 72 h, read-out: IC50 72 hr (μM)): 55 µM
Fold Change (HT-29; Average Fold Change between 24/72 hr IC50 values for MCF-7 and HT-29): 1588
IC50 (HT-29; HT-29, 24 h, read-out: IC50 24 hr (μM)): 33 ± 4 µM
IC50 (HT-29; HT-29, 72 h, read-out: IC50 72 hr (μM)): 27 ± 4 µM
% Remaining after 120 min (SD) [1]: 13±1%
AUC ratio ErSO-DFP:ErSO ([2]; I.V. 20 mg/kg): 0.6
CL ratio ErSO-DFP:ErSO ([2]; I.V. 20 mg/kg): 1.6
Cmax ratio ErSO-DFP:ErSO ([2]; I.V. 20 mg/kg): 1.9
MRT ratio ErSO-DFP:ErSO ([2]; I.V. 20 mg/kg): 0.2
Vss ratio ErSO-DFP:ErSO ([2]; I.V. 20 mg/kg): 0.3
AUC as % of the ErSO value ([2]; I.V., head-to-head): ~60%
AUC [2, 6]: 6370 ng·h/mL
Cmax [2, 6]: 14700 ng/mL
MRT [2, 6]: 52.8 min
clearance [2, 6]: 52 mL/min/kg
Vd ([2]; female, CD-1, mouse, in vivo, iv, I.V. 20 mg/kg, read-out: Vss): 2.75 L/kg
bioavailability ([2]; female, CD-1, mouse, in vivo, po, read-out: oral availability F %): 6%
MTD ([3]; iv, I.V.): 95 mg/kg
MTD ([3]; po, P.O.): > 200 mg/kg
Fold Increase Rel. to ErSO (MTD) (CD-1 mice; Mouse, I.V.): 4.8
fold increase in tolerability relative to ErSO (CD-1 mice; both mice and rats, administered intravenously): ~5 fold
MTD [4]: > 50 mg/kg
Fold Increase Rel. to ErSO (MTD) [5]: 3.3-5
MTD ([5]; single dose): >50 mg/kg
mouse weight change during MCF-7 study (MCF-7 tumors; I.V. 5 mg/kg once-a-week, three total doses): no significant weight change
antitumor effect on MCF-7 tumors (MCF-7 tumors; I.V. 5 mg/kg once-a-week, three total doses, tumors >300 mm^3): profound regression of MCF-7 tumors
increase in therapeutic index (TI) relative to ErSO (MCF-7 tumors; from efficacy data and head-to-head MTD studies): ≥ 5 fold
